Assay results taken from article PMC9882058 (bioRxiv, 2023).

Biological target: TcdA (Clostridioides difficile, UniProt P16154)
Conditions: peptides on beads; 0.2 µM TcdA-AF594; qualitative

TcdA, sequence (P16154 whole entry, looked up): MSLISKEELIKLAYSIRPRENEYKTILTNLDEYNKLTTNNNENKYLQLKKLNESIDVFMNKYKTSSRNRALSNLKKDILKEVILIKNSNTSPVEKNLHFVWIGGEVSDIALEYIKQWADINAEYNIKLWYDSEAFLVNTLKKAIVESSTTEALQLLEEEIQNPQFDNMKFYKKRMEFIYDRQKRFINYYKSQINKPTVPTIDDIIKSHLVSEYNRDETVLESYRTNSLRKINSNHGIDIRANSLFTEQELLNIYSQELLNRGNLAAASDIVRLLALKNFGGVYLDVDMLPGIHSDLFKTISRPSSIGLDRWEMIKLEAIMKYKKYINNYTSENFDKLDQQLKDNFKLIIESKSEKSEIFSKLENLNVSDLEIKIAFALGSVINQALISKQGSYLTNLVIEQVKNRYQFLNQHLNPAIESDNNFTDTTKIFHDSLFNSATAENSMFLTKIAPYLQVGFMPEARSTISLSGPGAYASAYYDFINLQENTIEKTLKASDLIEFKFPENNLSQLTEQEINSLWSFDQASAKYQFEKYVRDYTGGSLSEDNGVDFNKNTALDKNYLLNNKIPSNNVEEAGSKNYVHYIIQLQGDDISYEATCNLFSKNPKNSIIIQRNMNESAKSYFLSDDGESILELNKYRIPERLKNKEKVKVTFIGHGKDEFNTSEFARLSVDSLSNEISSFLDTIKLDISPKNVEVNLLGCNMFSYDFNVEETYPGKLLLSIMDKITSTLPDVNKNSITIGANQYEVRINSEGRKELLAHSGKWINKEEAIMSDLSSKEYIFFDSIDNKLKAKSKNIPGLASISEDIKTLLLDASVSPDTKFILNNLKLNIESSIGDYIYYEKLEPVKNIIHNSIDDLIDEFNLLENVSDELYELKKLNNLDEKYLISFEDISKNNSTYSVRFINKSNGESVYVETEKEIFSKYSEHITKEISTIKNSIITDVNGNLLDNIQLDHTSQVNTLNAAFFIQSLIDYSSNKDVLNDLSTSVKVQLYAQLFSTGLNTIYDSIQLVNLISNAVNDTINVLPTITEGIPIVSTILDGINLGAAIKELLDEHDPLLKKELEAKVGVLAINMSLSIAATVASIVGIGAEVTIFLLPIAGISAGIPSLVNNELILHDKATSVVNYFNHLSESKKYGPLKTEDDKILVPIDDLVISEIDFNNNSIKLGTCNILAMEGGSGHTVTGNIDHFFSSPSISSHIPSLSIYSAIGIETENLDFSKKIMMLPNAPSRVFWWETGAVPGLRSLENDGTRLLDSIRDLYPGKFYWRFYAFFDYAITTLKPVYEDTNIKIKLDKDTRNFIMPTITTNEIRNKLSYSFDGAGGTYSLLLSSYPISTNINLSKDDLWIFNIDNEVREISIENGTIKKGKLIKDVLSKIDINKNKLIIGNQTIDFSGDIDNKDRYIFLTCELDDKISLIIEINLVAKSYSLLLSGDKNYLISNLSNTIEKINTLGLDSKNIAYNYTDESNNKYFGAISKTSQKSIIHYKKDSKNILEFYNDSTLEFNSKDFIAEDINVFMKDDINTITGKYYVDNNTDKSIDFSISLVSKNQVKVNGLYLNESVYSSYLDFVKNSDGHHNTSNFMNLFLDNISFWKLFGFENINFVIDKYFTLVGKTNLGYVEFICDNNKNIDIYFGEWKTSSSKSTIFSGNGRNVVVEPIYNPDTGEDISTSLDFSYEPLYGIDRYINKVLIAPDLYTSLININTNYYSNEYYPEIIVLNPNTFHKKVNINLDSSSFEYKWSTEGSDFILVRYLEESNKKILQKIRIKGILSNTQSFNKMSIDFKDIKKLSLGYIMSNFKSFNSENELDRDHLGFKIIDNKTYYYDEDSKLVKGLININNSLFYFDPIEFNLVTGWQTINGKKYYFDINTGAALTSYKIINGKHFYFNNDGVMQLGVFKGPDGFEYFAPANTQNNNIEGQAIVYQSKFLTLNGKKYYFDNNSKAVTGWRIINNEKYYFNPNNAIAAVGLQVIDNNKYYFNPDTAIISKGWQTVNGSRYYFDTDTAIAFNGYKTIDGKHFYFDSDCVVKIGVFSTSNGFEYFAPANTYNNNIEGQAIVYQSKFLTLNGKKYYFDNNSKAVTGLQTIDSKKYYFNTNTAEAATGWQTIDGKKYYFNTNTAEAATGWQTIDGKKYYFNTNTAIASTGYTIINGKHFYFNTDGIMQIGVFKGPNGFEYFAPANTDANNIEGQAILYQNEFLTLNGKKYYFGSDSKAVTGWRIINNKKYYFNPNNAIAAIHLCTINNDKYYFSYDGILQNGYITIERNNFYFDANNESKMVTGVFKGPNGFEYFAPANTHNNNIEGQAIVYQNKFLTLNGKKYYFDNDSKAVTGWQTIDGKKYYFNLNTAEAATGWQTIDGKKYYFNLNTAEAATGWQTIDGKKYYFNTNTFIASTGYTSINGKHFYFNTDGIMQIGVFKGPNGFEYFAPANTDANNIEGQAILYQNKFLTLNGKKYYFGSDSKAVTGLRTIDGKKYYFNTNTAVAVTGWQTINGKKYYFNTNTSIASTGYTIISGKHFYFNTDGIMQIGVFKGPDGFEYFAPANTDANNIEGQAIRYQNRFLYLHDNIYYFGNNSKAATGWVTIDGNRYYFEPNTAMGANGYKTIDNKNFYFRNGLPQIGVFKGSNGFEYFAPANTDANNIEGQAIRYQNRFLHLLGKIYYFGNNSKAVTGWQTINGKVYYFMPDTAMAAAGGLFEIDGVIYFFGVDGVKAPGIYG

Sequence: EFWMGRHH [SA5]
- TcdA binding performance in bead-based screen: performed significantly better than those from Case 3 (SA6, SA7)

Sequence: MFWEHRHR [SA4]
- TcdA binding performance in bead-based screen: performed significantly better than those from Case 3 (SA6, SA7)

Sequence: QDWMRRHW [SA2]
- TcdA binding performance in bead-based screen: performed significantly better than those from Case 3 (SA6, SA7)
